Data: US20230081390A1, “INHIBITORS OF RAF KINASES” (Kinnate Biopharma Inc., priority 2019, published 2023)

Each compound was assayed against human RAF1 (Homo sapiens, UniProt P04049) (assay: Protein kinase assay (33P-ATP filter binding), human RAF1, 10-dose IC50). Conditions: MEK1 (K97R) substrate 3 micromolar, ATP 10 micromolar, read-out: RAF-1 IC50.
Type: biochemical
How it was run: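 Human RAF1 phosphorylated human MEK1 (K97R) substrate at 3 µM with 10 µM ATP (³³P), in pH 7.5 HEPES buffer with MgCl2, EGTA, Brij35, BSA, Na3VO4 and DTT. Reactions ran for 2 hr at room temperature with P81 filter capture.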

Sequence of human RAF1 (P04049 whole entry): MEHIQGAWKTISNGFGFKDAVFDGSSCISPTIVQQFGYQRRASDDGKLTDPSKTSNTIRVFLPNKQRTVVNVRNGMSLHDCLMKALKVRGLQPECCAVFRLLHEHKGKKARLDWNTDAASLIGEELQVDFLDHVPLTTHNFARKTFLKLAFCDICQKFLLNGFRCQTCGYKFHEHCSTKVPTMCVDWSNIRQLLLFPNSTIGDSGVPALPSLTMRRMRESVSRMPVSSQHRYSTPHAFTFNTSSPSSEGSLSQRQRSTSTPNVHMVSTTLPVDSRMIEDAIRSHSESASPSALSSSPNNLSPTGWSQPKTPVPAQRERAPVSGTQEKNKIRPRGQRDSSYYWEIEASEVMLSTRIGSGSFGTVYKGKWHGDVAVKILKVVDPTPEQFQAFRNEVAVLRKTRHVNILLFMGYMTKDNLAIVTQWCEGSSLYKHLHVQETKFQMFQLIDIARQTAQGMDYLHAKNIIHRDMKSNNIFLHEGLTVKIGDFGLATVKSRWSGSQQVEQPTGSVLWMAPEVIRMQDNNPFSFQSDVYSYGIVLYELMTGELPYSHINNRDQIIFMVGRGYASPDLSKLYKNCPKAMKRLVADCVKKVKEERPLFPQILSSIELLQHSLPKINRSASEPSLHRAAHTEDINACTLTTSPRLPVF

IC50, < 10 nM:
Cc1ccc(NC(=O)N2CC[C@@H](CC(F)(F)F)C2)cc1-c1cc(O[C@H]2CC[C@@H](O)C2)nc(N2CCOCC2)c1 [Example 209, (3S)-N-[3-(2-[[(1S,3R)-3-hydroxycyclopentyl]oxy]-6-(morpholin-4-yl)pyridin-4-yl)-4-methylphenyl]-3-(2,2,2-trifluoroethyl)pyrrolidine-1-carboxamide]
Cc1ccc(NC(=O)N2CC[C@@H](CC(F)(F)F)C2)cc1-c1cc(O[C@@H]2CC[C@H](O)C2)nc(N2CCOCC2)c1 [Example 210, (3S)-N-[3-(2-[[(1R,3S)-3-hydroxycyclopentyl]oxy]-6-(morpholin-4-yl)pyridin-4-yl)-4-methylphenyl]-3-(2,2,2-trifluoroethyl)pyrrolidine-1-carboxamide]
Cc1ccc(NC(=O)N2CC[C@@H](CC(F)(F)F)C2)cc1-c1cc(OC2CCC(C)(O)CC2)nc(N2CCOCC2)c1 (stereo partly drawn) [Example 211, (3S)-N-(3-[2-[(4-hydroxy-4-methylcyclohexyl)oxy]-6-(morpholin-4-yl)pyridin-4-yl]-4-methylphenyl)-3-(2,2,2-trifluoroethyl)pyrrolidine-1-carboxamide (cis)]
Cc1ccc(NC(=O)N2CC[C@@H](CC(F)(F)F)C2)cc1-c1cc(OC2CCC(C)(O)CC2)nc(N2CCOCC2)c1 (stereo partly drawn) [Example 212, (3S)-N-(3-[2-[(4-hydroxy-4-methylcyclohexyl)oxy]-6-(morpholin-4-yl)pyridin-4-yl]-4-methylphenyl)-3-(2,2,2-trifluoroethyl)pyrrolidine-1-carboxamide (trans)]
Cc1ccc(NC(=O)N2CC[C@@H](OC(F)(F)F)C2)cc1-c1cc(OC[C@H](C)O)nc(N2CCOCC2)c1 [Example 213, (3R)-N-(3-[2-[(2S)-2-hydroxypropoxy]-6-(morpholin-4-yl)pyridin-4-yl]-4-methylphenyl)-3-(trifluoromethoxy)pyrrolidine-1-carboxamide]
Cc1ccc(NC(=O)N2CC[C@@H](OC(F)(F)F)C2)cc1-c1cc(O[C@H](C)CO)nc(N2CCOCC2)c1 [Example 214, (3R)-N-[3-(2-[[(2R)-1-hydroxypropan-2-yl]oxy]-6-(morpholin-4-yl)pyridin-4-yl)-4-methylphenyl]-3-(trifluoromethoxy)pyrrolidine-1-carboxamide]
Cc1ccc(NC(=O)N2CC[C@@H](OC(F)(F)F)C2)cc1-c1cc(O[C@@H](C)CO)nc(N2CCOCC2)c1 [Example 215, (3R)-N-[3-(2-[[(2S)-1-hydroxypropan-2-yl]oxy]-6-(morpholin-4-yl)pyridin-4-yl)-4-methylphenyl]-3-(trifluoromethoxy)pyrrolidine-1-carboxamide]
Cc1ccc(NC(=O)N2CC=C(CC(F)(F)F)C2)cc1-c1cc(OCC(C)(C)O)nc(N2CCOCC2)c1 [Example 216, N-[3-[2-(2-hydroxy-2-methylpropoxy)-6-(morpholin-4-yl)pyridin-4-yl]-4-methylphenyl]-3-(2,2,2-trifluoroethyl)-2,5-dihydropyrrole-1-carboxamide]
Cc1ccc(NC(=O)N2CC[C@@H](CC(F)(F)F)C2)cc1-c1cc(OC2CC(C)(O)C2)nc(N2CCOCC2)c1 (stereo partly drawn) [Example 217, (3S)-N-[3-[2-(3-hydroxy-3-methylcyclobutoxy)-6-(morpholin-4-yl)pyridin-4-yl]-4-methylphenyl]-3-(2,2,2-trifluoroethyl)pyrrolidine-1-carboxamide]
Cc1ccc(NC(=O)N2CC[C@@H](CC(F)(F)F)C2)cc1-c1cc(OCC2(O)CC2)nc(N2CCOCC2)c1 [Example 218, (3S)-N-(3-[2-[(1-hydroxycyclopropyl)methoxy]-6-(morpholin-4-yl)pyridin-4-yl]-4-methylphenyl)-3-(2,2,2-trifluoroethyl)pyrrolidine-1-carboxamide]
Cc1ccc(NC(=O)N2CC[C@@H](CC(F)(F)F)C2)cc1-c1cc(O[C@@H]2CCC(F)(F)C2)nc(N2CCOCC2)c1 [Example 219, (3S)-N-[3-(2-[[(1R)-3,3-difluorocyclopentyl]oxy]-6-(morpholin-4-yl)pyridin-4-yl)-4-methylphenyl]-3-(2,2,2-trifluoroethyl)pyrrolidine-1-carboxamide]
Cc1ccc(NC(=O)N2CC[C@@H](CC(F)(F)F)C2)cc1-c1cc(O[C@H]2CCC(F)(F)C2)nc(N2CCOCC2)c1 [Example 220, (3S)-N-[3-(2-[[(1S)-3,3-difluorocyclopentyl]oxy]-6-(morpholin-4-yl)pyridin-4-yl)-4-methylphenyl]-3-(2,2,2-trifluoroethyl)pyrrolidine-1-carboxamide]
Cc1ccc(NC(=O)N2CC[C@@H](CC(F)(F)F)C2)cc1-c1cc(OCCS(C)(=N)=O)nc(N2CCOCC2)c1 (stereo partly drawn) [Example 221, (3S)-N-[3-(2-[2-[imino(methyl)oxo-λ^6-sulfanyl]ethoxy]-6-(morpholin-4-yl)pyridin-4-yl)-4-methylphenyl]-3-(2,2,2-trifluoroethyl)pyrrolidine-1-carboxamide]
Cc1ccc(NC(=O)N2CC=C(CC(F)(F)F)C2)cc1-c1cc(OC[C@@H](C)O)nc(N2CCOCC2)c1 [Example 222, (R)-N-(3-(2-(2-hydroxypropoxy)-6-morpholinopyridin-4-yl)-4-methylphenyl)-3-(2,2,2-trifluoroethyl)-2,5-dihydro-1H-pyrrole-1-carboxamide]
Cc1ccc(NC(=O)N2CC[C@@H](CC(F)(F)F)C2)cc1-c1cc(OC2CCC(C)(O)C2)nc(N2CCOCC2)c1 (stereo partly drawn) [Example 223, (3S)-N-(3-[2-[(3-hydroxy-3-methylcyclopentyl)oxy]-6-(morpholin-4-yl)pyridin-4-yl]-4-methylphenyl)-3-(2,2,2-trifluoroethyl)pyrrolidine-1-carboxamide]
Cc1ccc(NC(=O)N2CC[C@@H](CC(F)(F)F)C2)cc1-c1cc(OCC2(O)COC2)nc(N2CCOCC2)c1 [Example 224, (3S)-N-(3-[2-[(3-hydroxyoxetan-3-yl)methoxy]-6-(morpholin-4-yl)pyridin-4-yl]-4-methylphenyl)-3-(2,2,2-trifluoroethyl)pyrrolidine-1-carboxamide]
Cc1ccc(NC(=O)N2CC[C@@H](CC(F)(F)F)C2)cc1-c1cc(OCCC2(O)COC2)nc(N2CCOCC2)c1 [Example 225, (3S)-N-(3-[2-[2-(3-hydroxyoxetan-3-yl)ethoxy]-6-(morpholin-4-yl)pyridin-4-yl]-4-methylphenyl)-3-(2,2,2-trifluoroethyl)pyrrolidine-1-carboxamide]
Cc1ccc(NC(=O)N2CC[C@@H](CC(F)(F)F)C2)cc1-c1cncc(N2CCOCC2)c1 [Example 226, (3S)-N-[4-methyl-3-[5-(morpholin-4-yl)pyridin-3-yl]phenyl]-3-(2,2,2-trifluoroethyl)pyrrolidine-1-carboxamide]
Cc1ccc(NC(=O)N2CC[C@@H](CC(F)(F)F)C2)cc1-c1cc(OC[C@@H](C)O)nc(N2CCO[C@@H](C)C2)c1 [Example 227, (3S)-N-(3-[2-[(2R)-2-hydroxypropoxy]-6-[(2S)-2-methylmorpholin-4-yl]pyridin-4-yl]-4-methylphenyl)-3-(2,2,2-trifluoroethyl)pyrrolidine-1-carboxamide]
Cc1ccc(NC(=O)N2CC[C@@H](CC(F)(F)F)C2)cc1-c1cc(OC[C@@H](C)O)nc(N2CCO[C@H](C)C2)c1 [Example 228, (S)-N-(3-(2-((R)-2-hydroxypropoxy)-6-((R)-2-methylmorpholino)pyridin-4-yl)-4-methylphenyl)-3-(2,2,2-trifluoroethyl)pyrrolidine-1-carboxamide]
Cc1ccc(NC(=O)N2CC[C@@H](CC(F)(F)F)C2)cc1-c1cc(OC[C@@H](C)O)nc(N2CC3(COC3)C2)c1 [Example 229, (3S)-N-(3-[2-[(2R)-2-hydroxypropoxy]-6-[2-oxa-6-azaspiro[3.3]heptan-6-yl]pyridin-4-yl]-4-methylphenyl)-3-(2,2,2-trifluoroethyl)pyrrolidine-1-carboxamide]
Cc1ccc(NC(=O)N2CC[C@@H](CC(F)(F)F)C2)cc1-c1cc(OC[C@@H](C)O)nc(N2CCOC3CC32)c1 (stereo partly drawn) [Example 230, (3S)-N-(3-(2-(2-oxa-5-azabicyclo[4.1.0]heptan-5-yl)-6-((R)-2-hydroxypropoxy)pyridin-4-yl)-4-methylphenyl)-3-(2,2,2-trifluoroethyl)pyrrolidine-1-carboxamide]
Cc1ccc(NC(=O)N2CC[C@@H](CC(F)(F)F)C2)cc1-c1cc(OC2(CO)CC2)nc(N2CCOCC2)c1 [Example 231, (S)-N-(3-(2-(1-(hydroxymethyl)cyclopropoxy)-6-morpholinopyridin-4-yl)-4-methylphenyl)-3-(2,2,2-trifluoroethyl)pyrrolidine-1-carboxamide]
Cc1ccc(NC(=O)N2CC[C@@H](CC(F)(F)F)C2)cc1-c1cc(OC(C)(C)CO)nc(N2CCOCC2)c1 [Example 232, (S)-N-(3-(2-((1-hydroxy-2-methylpropan-2-yl)oxy)-6-morpholinopyridin-4-yl)-4-methylphenyl)-3-(2,2,2-trifluoroethyl)pyrrolidine-1-carboxamide]
Cc1ccc(NC(=O)N2CC[C@@H](CC(F)(F)F)C2)cc1-c1cc(O[C@H](C)[C@@H](C)O)nc(N2CCOCC2)c1 [Example 233, (S)-N-(3-(2-(((2R,3R)-3-hydroxybutan-2-yl)oxy)-6-morpholinopyridin-4-yl)-4-methylphenyl)-3-(2,2,2-trifluoroethyl)pyrrolidine-1-carboxamide]
